Test results as given in patent US20230158042A1, “COMBINATION CANCER THERAPY WITH PENTAAZA MACROCYCLIC RING COMPLEX AND HORMONE THERAPY AGENT” (Galera Labs, LLC, priority 2020, published 2023).

Experiments:
[1] = test system: T47D cells expressing shSIRT3; assay: Clonogenic cell survival in T47D-shSIRT3 cells with hydroxy-Tam; assay type: cell-based, human; settings: 1 µM 4-hydroxy-Tam for 24 h
Excerpt: FIGS. 14a-14g are images and plots that illustrate that loss of SIRT3-induced MnSOD—K68 deacetylation leads to hydroxy-Tam resistance, and that such resistance is associated with increased lysine acetylation in human breast cancer cells, while mimicking deacetylation of MnSOD—K68 or pharmacologically mimicking the activity of deacetylated lysine 68 MnSOD with a manganese pentaazamacrocyclic dismutase mimetic has opposing effects. With respect to FIG. 14a, T47D-MnSOD^WT, T47D-MnSOD^K68R, and T47D-MnSOD^K68D permanent cell lines were selected for hydroxy-Tam resistance in 1 µM for 3 months, and clonogenic cell survival experiments were completed. […] With respect to FIG. 14c, T47D and T47D-HTR cells, with and without exposure to 1 µM 4-hydroxy-Tam for 24 h (HT), were measured for hydroxy-Tam response by clonogenic survival experiments. […] The cell lysates were analyzed by immunoblotting with anti-MnSOD-K122-Ac (validated as a SIRT3 deacetylation target in Tao et al., 2010, Cancer Cell), anti-MnSOD, anti-OSCP-K139-Ac (validated as a SIRT3 deacetylation target in Tao et al., 2010, Cancer Cell), anti-OSCP, anti-IDH2K413-Ac (validated as a SIRT3 deacetylation target in Someya et al., 2010, Cancer Cell), anti-IDH2, and anti-actin. […]
Clonogenic cell survival assay. […] Cells were stained with crystal violet, and colonies of >50 cells were counted and utilized to calculate clonogenic survival^46.

[2] = test system: MCF7 cells expressing shSIRT3; assay: Clonogenic cell survival in MCF7-shSIRT3 cells with hydroxy-Tam; assay type: cell-based, human; settings: 1 µM hydroxy-Tam for 120 h
Experimental: All experiments were done in triplicate. Error bars represent ± 1 SEM. **p < 0.01, and ***p < 0.001. Three-armed groups were analyzed via a one-way ANOVA statistical analysis with Tukey’s post-analysis, and two-armed groups were analyzed by a t-test.
(§1) Clonogenic cell survival assay. For the clonogenic survival analysis, exponentially growing cells were replated using appropriate dilutions, and clonogenic survival was evaluated after 14 days in regular growth medium. Cells were stained with crystal violet, and colonies of >50 cells were counted and utilized to calculate clonogenic survival^46.

[3] = test system: T47D cells constitutively expressing MnSOD^K68Q; assay: Clonogenic cell survival in T47D-MnSOD^K68Q cells with hydroxy-Tam; assay type: cell-based, human; settings: 1 µM hydroxy-Tam; compared to cells expressing MnSOD^K68WT or MnSOD^K68R
MCF7-MnSOD^K68Q cells = assay: Clonogenic cell survival in MCF7-MnSOD^K68Q cells; assay type: cell-based, human
Experimental: FIGS. 25a-25b show clonogenic cell survival studies in MCF7-MnSOD^K68Q cells exposed to either: Fulv at 100 nM (in FIG. 25a); or Palb at 0.5 µM (in FIG. 25b) using standard methods. […] Error bars are ± 1 SEM. Experiments in triplicate. *** p < 0.001.
as §1

[4] = test system: MCF7 cells overexpressing MnSOD^K68Q; assay: MTT cell viability, MCF7 cells overexpressing MnSOD^K68Q; assay type: cell-based, human; settings: 48 hours
Experimental: (§2) In FIGS. 28a-28b, cell lysates of 250 nM, 500 nM, 1 µM cisplatin-resistant and 500pM, 1 nM and 2 nM doxorubicin-resistant MCF7 cells (cultured in drug-containing media for 3 months) were collected and immunoblotted for MnSOD—K68—Ac, MnSOD, actin and tubulin. In FIGS. 28d-28e, cell lysates of 2.5 µM, 5 µM, 10 µM cisplatin-resistant and 5 nM, 10 nM and 20 nM doxorubicin-resistant T47D cells (cultured in drug-containing media for 3 months) were collected and immunoblotted for MnSOD—K68—Ac, MnSOD, actin and tubulin. In FIGS. 28c and 28f, 10,000 MCF7 or T47D cells overexpressed with empty vector, MnSOD^WT, MnSOD^K68R or MnSOD^K68Q were plated in 96 well plate and treated with cisplatin (1 µM for MCF7 and 10 µM for T47D) or doxorubicin (2 nM for MCF7 and 20 nM for T47D) the next day. After 48 hours, MTT assay is conducted to determine the cell viability after chemotherapy drug treatment.
(§3) Cell proliferation was measured using MTT proliferation assay kit (ab211091). 10,000 exponentially growing cells were plated in regular growth medium per well into 96-well plates in triplicate. Cells were treated with specified drugs after overnight and incubated for 48 hours. […] The absorbance was read at OD=590 nm and used to evaluate cell proliferation.

[5] = test system: T47D cells overexpressing MnSOD^K68Q; assay: MTT cell viability, T47D cells overexpressing MnSOD^K68Q; assay type: cell-based, human; settings: 48 hours
Experimental: as §2, §3

LNCaP-MnSOD^K68Q cells = assay: Clonogenic cell survival in LNCaP-MnSOD^K68Q cells; assay type: cell-based; settings: 10 µM of ENZ for 72 hr
Experimental: In FIG. 20a, clonogenic cell survival experiments were done in LNCaP-ENZR cells infected with lenti-MnSOD^K68R or lenti-MnSOD^K68Q, in the presence of ENZ (10 µM). In FIG. 20b, clonogenic survival assays were done in LNCaP cells infected with lenti-MnSOD^WT, lenti-MnSOD^K68R, and lenti-MnSOD^K68Q, and selected with neomycin, and placed in 10 µM of ENZ for 72 hr. Error bars ± 1 SEM. Experiments were done in triplicate. **p < 0.01.
FIGS. 21a-21b are a chart and graph showing that pharmacologically mimicking the activity of deacetylated lysine 68 MnSOD with a manganese pentaazamacrocyclic dismutase mimetic both inhibited the growth of LNCaP-ENZR tumors and reversed the enzalutamide resistance in LNCaP-ENZR / LNCaP—MnSOD^K68Q cells and tumors. In FIG. 21a, clonogenic cell survival experiments were performed in LNCaP-ENZR (left two bars) and LNCaP—MnSOD^K68Q (right two bars) treated with ENZ, with or without GC4419 (20 µM) for 5 days. […] Tumor volumes were measured three times a week for 46 days. For each group n=10. Error bars ± 1 SEM. All experiments done in triplicate. **p < 0.01.

colon of rats = settings: experimental model of colitis; cited from earlier work
[6] = test system: rat model of inflammation; settings: cited from earlier work
[7] = test system: rat model of collagen-induced arthritis; settings: cited from earlier work
[8] = test system: hamster model of acute, radiation-induced oral mucositis; settings: cited from earlier work
adult mice = settings: lethal total body irradiation of adult mice; cited from earlier work

4-hydroxytamoxifen [hydroxy-Tam]
hydroxy-Tam cytotoxicity (clonogenic survival) [1]: resistance to hydroxy-Tam cytotoxicity
hydroxy-Tam cytotoxicity (clonogenic survival) [2]: resistance to hydroxy-Tam cytotoxicity
cytotoxicity of hydroxy-Tam (clonogenic survival) [3]: significant resistance to the cytotoxicity of hydroxy-Tam
cytotoxicity of hydroxy-Tam (clonogenic survival) (MCF7-MnSOD^K68Q cells; 1 µM hydroxy-Tam for 5 days, compared to cells expressing MnSOD^K68WT or MnSOD^K68R): significant resistance to the cytotoxicity of hydroxy-Tam

[NH2][Pt]([NH2])([Cl])[Cl] [CDDP, cisplatin]
cell viability after drug treatment (MTT) ([4]; CDDP 1 µM): higher resistance
cell viability after drug treatment (MTT) ([5]; CDDP 10 µM): higher resistance

COc1cccc2c1C(=O)c1c(O)c3c(c(O)c1C2=O)C[C@@](O)(C(=O)CO)C[C@@H]3O[C@H]1C[C@H](N)[C@H](O)[C@H](C)O1 [DXR, doxorubicin]
cell viability after drug treatment (MTT) ([4]; DXR 2 nM): higher resistance
cell viability after drug treatment (MTT) ([5]; DXR 20 nM): higher resistance

CNC(=O)c1ccc(N2C(=S)N(c3ccc(C#N)c(C(F)(F)F)c3)C(=O)C2(C)C)cc1F [ENZ, enzalutamide, reference compound]
response to ENZ (clonogenic survival) (LNCaP-MnSOD^K68Q cells): ENZR phenotype

C[C@]12CC[C@@H]3c4ccc(O)cc4C[C@@H](CCCCCCCCC[S+]([O-])CCCC(F)(F)C(F)(F)F)[C@H]3[C@@H]1CC[C@@H]2O (stereo partly drawn) [Fulv, fulvestrant]
clonogenic tumor cell survival (MCF7-MnSOD^K68Q cells; Fulv at 100 nM, compared to MCF7 cells expressing MnSOD^WT): exhibited resistance

[Cl-].[Cl-].[Mn+2].c1cc2nc(c1)CN[C@@H]1CCCC[C@H]1NCCN[C@@H]1CCCC[C@H]1NC2 [GC4403]
injury to the colon (colon of rats): very significantly reduce the injury to the colon
inflammation [6]: inhibit inflammation
joint disease [7]: prevent joint disease
radiation damage [8]: attenuate the radiation damage
radiation damage (adult mice): attenuate the radiation damage
